In paper PMC12055592, “Post-symptomatic NLRP3 inhibition rescues cognitive impairment and mitigates amyloid and tau driven neurodegeneration” (Npj Dementia, 2025):

Assays:
[1] = Mouse pharmacokinetic study, 7 days oral dosing, blood; format: in vivo; settings: WT mice
Experimental: Male C57Bl/6 mice (weight 20–30 g, age 6–8 weeks old) were obtained from Charles River Laboratories Canada, and acclimated for 5 days before the study. Three animals were dosed by oral gavage during 7 days with 20 mg/kg of VEN-02XX suspended in 0.5% w/v methylcellulose/0.2% w/v Tween 80, at a dose volume of 10 mL/kg. Food and water were available ad libitum to all animals. On day 7, serial blood samples were collected from a tail snip at 0.25, 0.5, 1, 2, 4, 6, and 24 h post-dose, and […] of blood was added to a micro tube racked system pre-filled with […] of 10 mM sodium citrate buffer (final blood/buffer ratio 1:3, or dilution factor of 4). The plate was stored at −20 °C until LC-MS/MS analysis.
Concentrations of VEN-02XX in plasma and brain were determined by a LC-MS/MS assay. The plasma samples were thawed at room temperature and 20 μL aliquot of each sample was added to a 1.2 mL deep 96-well plate containing 20 µL ACN. The standard curve was prepared by making different dilutions in ACN. A 20 µL standard solution at each concentration was added into a 96-deepwell plate, followed by addition of 20 µL blank plasma or brain homogenate. Then, 200 μL of an internal standard mixture (5 ng/mL Glyburide and Loperamide in ACN) was added to each sample. The plates were vortexed and centrifuged at 4000 rpm for 10 min at 4 °C; 70 μL of the supernatant was diluted with 140 μL of water, and 10 μL of the solution was injected onto an analytical column. A Shimadzu UPLC system coupled with a SCIEX 4500 mass spectrometer (AB Sciex, Foster City, CA) was used for sample analysis. The mobile phase A was 0.1% FA in water and mobile phase B was 0.1% FA in 1/5 IPA/ACN. The gradient started at 10% B, held for 0.2 min and increased to 95% B in 1.3 min, maintained at 95% B for 0.7 min, and then decreased to 10% B within 0.01 min. The total flow rate was 0.5 mL/min, and samples were injected onto an Acquity UPLC BEH C18 (2.1 mm × 5 cm, 2.3 u) analytical column with a total run time of 2.5 min. Data were acquired using multiple reactions monitoring (MRM) in positive ion electrospray mode with an operating source temperature of 400 °C. Two transitions were monitored for VEN-02XX and the more sensitive transition with less interference (397.1 –> 270.1) was used for quantification.
Pharmacokinetic parameters were determined by non-compartmental analysis using WinNonLin software (Phoenix^TM, version 8.3), and the following parameters were calculated from the plasma concentrations versus time data: T1/2, Cmax, Tmax, AUCinf, AUClast. When appropriate, the brain Kp was calculated as AUClast(brain)/AUClast(plasma). Free brain partition coefficient (Kpuu) was calculated using the free fraction in plasma and brain measured in a high throughput equilibrium dialysis assay.

[2] = system: NLRP3 inflammasome, IL-18 in iPSC-derived microglia; assay: iPSC-derived microglia in vitro assay, secreted IL-18; format: cell-based; settings: geometric mean, n = 5
Experimental: iPSC-derived microglia (BX-0900, BrainXell, Madison, WI) were thawed and recovered as per the supplier’s instructions. Briefly, viable cells were counted post-thaw using Trypan Blue, 0.4% (Thermo Fisher Scientific) and 25,000 cells were seeded on poly-d-lysine coated 96-well plates in DMEM-F/12 medium (Thermo Fisher Scientific) supplemented with 1X B-27 supplement (Thermo Fisher Scientific), 1X N-2 supplement (Thermo Fisher Scientific), 1X Non-essential amino acids (Thermo Fisher Scientific), 1X Chemically defined lipid mix (Thermo Fisher Scientific), 1 mM GlutaMax (Thermo Fisher Scientific), 0.2 mM Ascorbic Acid (Millipore), 100 ng/mL IL-34 (PeproTech, Cranbury, NJ), 2 ng/mL TGF-β1 (PeproTech) and 20 ng/mL M-CSF (PeproTech). Fresh media was added 3 days after seeding, half of which was replenished with fresh media 6 days following seeding. The assay was performed 7 days after cells were seeded in 96-well plates. Two assay protocol variations were performed: cells were either pre-treated with VEN-02XX to block NLRP3 inflammasome formation and then primed with LPS (Fig. 1, D. Compound added before LPS priming) or were primed with LPS and then treated with VEN-02XX (Fig. 1, D. Compound added after LPS priming). For compound treatment, cells were treated with VEN-02XX for 1 h (top concentration 100 µM; 3-fold titration) to block NLRP3 inflammasome formation. […]

[3] = biological target: human NLRP3 (Homo sapiens, UniProt Q96P20); assay: SPR analysis of interaction with human NLRP3; format: binding
Experimental: VEN-02XX was profiled in vitro to confirm specific binding to human NLRP3 as well as activity in various cellular assays.
The human NLRP3 protein was immobilized onto a nickel-NTA surface (Xantec NiHC1500M). Assay was run in 25 mM HEPES pH 7.5, 150 mM NaCl, 5 mM MgCl2, 0.5 mM TCEP, 0.5 mM ADP, 0.05% Tween-20 and 1% DMSO at 25 °C. Single-cycle method was used, and compound was injected over surface with a contact time of 120 s on and 600 s off by Biocore 8 K machine (Cytiva). A 5-points solvent correction curve was run pre and post run to correct for refractive index of DMSO. Data was then analyzed using the Biacore evaluation software to report binding kinetic parameters.

[4] = system: 5XFAD/Rubicon KO mice; assay: Spontaneous alternation (Y-maze) in 5XFAD/Rubicon KO mice; format: in vivo, mouse
Experimental: 5XFAD/Rubicon KO mice received vehicle (0.5% w/v methylcellulose/0.1% w/v Tween® 80 in water) or VEN-02XX (0.01, 1, or 20 mg/kg) every day by oral gastric gavage for 9 weeks.
Spontaneous alternation was measured in a standard Y-maze setup. Mice were acclimated to the testing room for 48 h. In each 5-min trial, percent spontaneous alternation was measured as […][32]. Any mouse with less than 5 arm entries during the 5 min trial was excluded from the analysis.

[5] = male, C57Bl/6, mouse, whole blood, blood, 20 mg/kg PO QD for seven days

Chain of human NLRP3 (Q96P20 whole entry): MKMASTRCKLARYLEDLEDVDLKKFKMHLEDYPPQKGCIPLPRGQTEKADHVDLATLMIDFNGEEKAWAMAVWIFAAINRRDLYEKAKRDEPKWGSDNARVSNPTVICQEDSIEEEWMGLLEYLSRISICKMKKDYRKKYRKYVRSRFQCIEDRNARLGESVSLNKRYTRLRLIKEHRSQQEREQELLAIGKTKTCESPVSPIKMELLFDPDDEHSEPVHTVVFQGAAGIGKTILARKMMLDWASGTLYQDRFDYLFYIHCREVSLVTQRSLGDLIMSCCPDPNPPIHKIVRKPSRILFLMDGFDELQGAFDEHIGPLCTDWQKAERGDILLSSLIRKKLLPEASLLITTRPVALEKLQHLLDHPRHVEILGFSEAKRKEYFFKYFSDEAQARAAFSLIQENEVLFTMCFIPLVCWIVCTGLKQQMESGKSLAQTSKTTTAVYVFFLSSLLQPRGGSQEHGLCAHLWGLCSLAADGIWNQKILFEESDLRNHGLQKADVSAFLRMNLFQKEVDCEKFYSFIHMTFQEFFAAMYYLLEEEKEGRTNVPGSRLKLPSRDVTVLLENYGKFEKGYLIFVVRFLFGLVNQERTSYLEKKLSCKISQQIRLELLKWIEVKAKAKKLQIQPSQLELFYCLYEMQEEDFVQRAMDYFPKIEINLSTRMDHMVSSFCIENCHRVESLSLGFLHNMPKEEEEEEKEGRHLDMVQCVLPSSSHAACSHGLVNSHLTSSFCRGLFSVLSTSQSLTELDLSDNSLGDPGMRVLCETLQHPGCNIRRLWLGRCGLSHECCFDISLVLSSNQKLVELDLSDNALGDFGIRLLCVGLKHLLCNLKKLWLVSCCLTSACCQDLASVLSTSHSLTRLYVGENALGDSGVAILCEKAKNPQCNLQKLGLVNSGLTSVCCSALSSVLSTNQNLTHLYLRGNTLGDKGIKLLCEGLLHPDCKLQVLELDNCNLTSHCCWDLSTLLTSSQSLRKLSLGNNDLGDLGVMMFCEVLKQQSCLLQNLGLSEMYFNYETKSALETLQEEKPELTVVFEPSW

Structure (SMILES): CC(C)(O)CNc1nnc(-c2ccc(Cl)cc2C(F)(F)F)c2ccncc12 [VEN-02XX]
- NLRP3 inhibitory activity maintained by exposure ([1]; 20 mg/kg PO once daily, 7 days): sufficient to maintain a 50% inhibitory activity of NLRP3 throughout the dosing schedule
- AUC(0-inf) [1, 5]: 143 µM·h
- Cmax [1, 5]: 20.7 µM
- Tmax [1, 5]: 1 h
- half-life [1, 5]: 3.16 h
- IC50 ([2]; compound added after LPS priming): 220 nM
- IC50 ([2]; compound added before LPS priming): 280 nM
- Kd ([3]; human NLRP3): 93.3 nM
- residence time ([3]; human NLRP3, read-out: residence time (1/kd) (converted)): 12.9 min
- kon ([3]; pH 7.5, 1:1 binding, read-out: ka): 13800 M⁻¹ s⁻¹
- spontaneous alternation (Y-maze) ([4]; 9 weeks, 0.01, 1, 20 mg/kg PO QD vs vehicle): striking dose-dependent improvement
- spontaneous alternation (Y-maze), learning and memory ([4]; 9 weeks, 20 mg/kg PO QD): restoration of learning and memory to near wild type control levels for most animals
